{"source": "patent US9193990B2", "about": "“Bioluminescent metal ion assay” (priority 2013, dated 2015)", "key": {"apoNanoLuc-CA": {"tested_on": "apoNanoLuc-CA", "assay": "bioluminescence emission of NanoLuc-CA with fluorescent sulfonamide and competing sulfonamide (FIG. 4)", "format": "binding, human", "conditions": "19 nM free Zn, after addition of competing nonfluorescent sulfonamide", "source_text": "In another preferred embodiment the luciferase gene fused to the human carbonic anhydrase II gene is from a variant of the luciferase isolated from the deep sea shrimp Oplophorus gracilirostris (offered commercially by Promega as Nanoluc), and the luciferin is a coelenterazine derivative called furimazine (“Engineered Luciferase Reporter from a Deep Sea Shrimp Utilizing a Novel Imidazopyrazinone Substrate” by Mary P. Hall †, James Unch ‡, Brock F. Binkowski †, Michael P. Valley †, Braeden L. Butler †, Monika G. Wood †, Paul Otto †, Kristopher Zimmerman †, Gediminas Vidugiris †, Thomas Machleidt †, Matthew B. Robers †, Hélène A. Benink †, Christopher T. Eggers †, Michael R. Slater †, Poncho L. Meisenheimer ‡, Dieter H. Klaubert ‡, Frank Fan †, Lance P. Encell *†, and Keith V. Wood † ACS Chem. Biol., 2012, 7 (11), pp 1848-1857DOI: 10.1021/cb3002478). […] An important advantage of this ratiometric approach is that it is essentially independent of time-dependent changes in bioluminescence emission, which are frequently observed. […]"}, "[1]": {"target": "wild type human carbonic anhydrase II (Homo sapiens, UniProt P00918)", "conditions": "free zinc ion, read-out: KD for binding to carbonic anhydrase; cited from earlier work"}, "[2]": {"tested_on": "firefly luciferase-holoCA fusion protein", "text": "The free zinc concentration can be related to the amount of orange emission, or preferably to the levels of luciferase emission and ultimate acceptor emission, or their ratio, which is proportional to zinc concentration."}}, "note": "pKd: −log10 of the molar value."}
{"molecule": "fluorescein thioureidyl ethyl phenyl sulfonamide [fluorescein sulfonamide]", "values": [{"measurement": "specificity of sulfonamide binding", "setting": "apoNanoLuc-CA", "result": "specific"}]}
{"molecule": "zinc ion", "values": [{"measurement": "pKd", "setting": "[1]", "result": "~11.40"}]}
{"molecule": "CC(=O)Nc1nnc(S(N)(=O)=O)s1", "note": "[acetazolamide]", "values": [{"measurement": "displacement of LISSAMINE rhodamine sulfonamide from holoCA sulfonamide binding site", "setting": "[2]", "result": "completely displaced"}]}
